# Results taken from US8901118B2, “Compounds and methods for kinase modulation, and indications therefor” (Plexxikon Inc., priority 2010, dated 2014).
# pIC50: −log10 of the molar value.
# Target: CYP3A4(BFC) (Homo sapiens, UniProt P08684)
# Test: CYP3A4(BFC) inhibition
# Format: in vitro ADME
# Details: CYP3A4, substrate BFC; read-out: Cyp IC50 3A4(BFC)
# Procedure, shortened: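 Inhibition of human CYP3A4 with the BFC substrate was measured by fluorescence loss of the metabolized product. Compounds at 100 mM in DMSO were diluted 1 μL into 82 μL acetonitrile, then 11 μL into 204 μL cofactor mix with NADPH regeneration solutions, and serially diluted 1:1 to 10 points. Plates were incubated 30 min at 37° C and read at 409 ex/460 em to obtain IC50.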
# Chain of CYP3A4(BFC) (P08684 whole entry): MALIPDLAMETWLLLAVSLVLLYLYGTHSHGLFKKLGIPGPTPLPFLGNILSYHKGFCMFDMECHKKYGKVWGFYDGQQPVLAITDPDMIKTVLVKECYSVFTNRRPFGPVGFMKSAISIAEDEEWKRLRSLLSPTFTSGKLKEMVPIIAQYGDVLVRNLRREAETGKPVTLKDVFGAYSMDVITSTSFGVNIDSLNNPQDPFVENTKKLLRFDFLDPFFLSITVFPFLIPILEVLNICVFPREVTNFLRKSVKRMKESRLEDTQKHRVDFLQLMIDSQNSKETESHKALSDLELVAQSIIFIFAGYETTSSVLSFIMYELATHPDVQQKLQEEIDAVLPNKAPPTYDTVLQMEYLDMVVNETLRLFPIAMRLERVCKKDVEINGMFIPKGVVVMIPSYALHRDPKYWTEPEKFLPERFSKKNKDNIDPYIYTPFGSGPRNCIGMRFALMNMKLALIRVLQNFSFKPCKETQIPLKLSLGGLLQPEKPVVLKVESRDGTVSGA
row,SMILES,pIC50
1,"Clc1cnc2[nH]cc(Cc3cnc(NC4CCCCC4)nc3)c2c1 [Compound P-3001, [5-(5-chloro-1H-pyrrolo[2,3-b]pyridin-3-ylmethyl)-pyrimidin-2-yl]-cyclohexyl-amine]",< 5.00
2,FC1(F)CCC(Nc2ncc(Cc3c[nH]c4ncc(Cl)cc34)cn2)CC1 [Compound P-3004],< 5.00
3,"Clc1cnc2[nH]cc(Cc3cnc(NC4CCCCCC4)nc3)c2c1 [Compound P-3006, [5-(5-Chloro-1H-pyrrolo[2,3-b]pyridin-3-ylmethyl)-pyrimidin-2-yl]-cycloheptyl-amine]",< 5.00
4,"Cc1cnc2[nH]cc(Cc3cnc(Nc4ccc(C(F)(F)F)nc4)nc3)c2c1 [Compound P-3018, [5-(5-Methyl-1H-pyrrolo[2,3-b]pyridin-3-ylmethyl)-pyrimidin-2-yl]-(6-trifluoromethyl-pyridin-3-yl)-amine]",> 5.30
5,"Cc1cnc2[nH]cc(Cc3ccc(Nc4ccc(C)nc4)nc3F)c2c1 [Compound P-3041, [6-Fluoro-5-(5-methyl-1H-pyrrolo[2,3-b]pyridin-3-ylmethyl)-pyridin-2-yl]-(6-methyl-pyridin-3-yl)-amine]",5.00 to 5.30

# Next, values leading:
row,pIC50,SMILES
1,< 5.00,"COc1ccc(Nc2ccc(Cc3c[nH]c4ncc(C)cc34)c(F)n2)cn1 [Compound P-3019, [6-fluoro-5-(5-methyl-1H-pyrrolo[2,3-b]pyridin-3-ylmethyl)-pyridin-2-yl]-(6-methoxy-pyridin-3-yl)-amine]"
2,< 5.00,"CCOc1ccc(Nc2ccc(Cc3c[nH]c4ncc(C)cc34)c(F)n2)cn1 [Compound P-3039, (6-ethoxy-pyridin-3-yl)-[6-fluoro-5-(5-methyl-1H-pyrrolo[2,3-b]pyridin-3-ylmethyl)-pyridin-2-yl]-amine]"
3,< 5.00,"COc1ccc(Nc2ccc(C(=O)c3c[nH]c4ncc(C)cc34)c(F)n2)cn1 [Compound P-3040, [2-Fluoro-6-(6-methoxy-pyridin-3-ylamino)-pyridin-3-yl]-(5-methyl-1H-pyrrolo[2,3-b]pyridin-3-yl)-methanone]"

# Target: TrkA kinase (Homo sapiens, UniProt P04629)
# Test: TrkA kinase biochemical activity assay (AlphaScreen)
# Details: 100 μM ATP; read-out: Biochemical Inhibition IC50 TrkA
# Procedure, shortened: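 Recombinant TrkA with 30 nM biotin-(E4Y)10 and 100 μM ATP in 25 mM Hepes pH 7.5, 10 mM MnCl2, 5% DMSO, 40 min at room temperature. Phosphorylation read by AlphaScreen (streptavidin donor, PY20 acceptor beads); IC50 from signal vs compound concentration. TrkC run similarly.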
# Chain of TrkA kinase (P04629 33-796): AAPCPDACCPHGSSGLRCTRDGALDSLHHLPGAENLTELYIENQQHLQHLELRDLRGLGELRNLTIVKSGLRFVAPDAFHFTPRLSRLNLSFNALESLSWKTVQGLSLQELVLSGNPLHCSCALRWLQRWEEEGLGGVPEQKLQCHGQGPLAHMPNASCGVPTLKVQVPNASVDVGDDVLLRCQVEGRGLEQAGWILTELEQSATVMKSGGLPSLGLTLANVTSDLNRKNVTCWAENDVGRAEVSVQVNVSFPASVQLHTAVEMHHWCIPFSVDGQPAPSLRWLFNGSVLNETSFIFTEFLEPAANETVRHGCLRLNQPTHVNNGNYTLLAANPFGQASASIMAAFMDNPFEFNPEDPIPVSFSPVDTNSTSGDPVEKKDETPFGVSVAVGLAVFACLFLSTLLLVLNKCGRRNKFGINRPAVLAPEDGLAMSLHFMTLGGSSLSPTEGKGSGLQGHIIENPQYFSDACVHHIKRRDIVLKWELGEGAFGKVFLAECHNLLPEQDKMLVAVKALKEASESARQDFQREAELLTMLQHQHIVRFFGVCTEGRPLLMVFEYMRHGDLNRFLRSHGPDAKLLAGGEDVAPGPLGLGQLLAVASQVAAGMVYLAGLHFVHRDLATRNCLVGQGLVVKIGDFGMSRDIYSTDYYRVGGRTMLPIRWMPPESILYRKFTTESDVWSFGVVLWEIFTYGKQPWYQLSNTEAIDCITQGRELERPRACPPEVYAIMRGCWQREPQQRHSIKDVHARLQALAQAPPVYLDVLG
row,SMILES,pIC50
1,"COc1ccccc1Nc1ncc(Cc2c[nH]c3ncc(Cl)cc23)cn1 [Compound P-3016, [5-(5-Chloro-1H-pyrrolo[2,3-b]pyridin-3-ylmethyl)-pyrimidin-2-yl]-(2-methoxy-phenyl)-amine]",< 6.00
2,"Fc1cccc(Nc2ncc(Cc3c[nH]c4ncc(Cl)cc34)cn2)c1 [Compound P-3017, [5-(5-Chloro-1H-pyrrolo[2,3-b]pyridin-3-ylmethyl)-pyrimidin-2-yl]-(3-fluoro-phenyl)-amine]",< 6.00
3,"Cc1cnc2[nH]cc(Cc3cnc(Nc4ccc(C(F)(F)F)nc4)nc3)c2c1 [Compound P-3018, [5-(5-Methyl-1H-pyrrolo[2,3-b]pyridin-3-ylmethyl)-pyrimidin-2-yl]-(6-trifluoromethyl-pyridin-3-yl)-amine]",> 6.00
4,"COc1cc(Nc2ncc(Cc3c[nH]c4ncc(C)cc34)cn2)ccc1F [Compound P-3022, (4-Fluoro-3-methoxy-phenyl)-[5-(5-methyl-1H-pyrrolo[2,3-b]pyridin-3-ylmethyl)-pyrimidin-2-yl]-amine]",> 6.00
5,"CCCOc1ccc(Nc2ncc(Cc3c[nH]c4ncc(C)cc34)cn2)cc1 [Compound P-3024, [5-(5-Methyl-1H-pyrrolo[2,3-b]pyridin-3-ylmethyl)-pyrimidin-2-yl]-(4-propoxy-phenyl)-amine]",> 6.00
6,"CCOc1ccc(Nc2ncc(Cc3c[nH]c4ncc(C)cc34)cn2)cc1 [Compound P-3026, (4-Ethoxy-phenyl)-[5-(5-methyl-1H-pyrrolo[2,3-b]pyridin-3-ylmethyl)-pyrimidin-2-yl]-amine]",< 6.00
7,"CCOc1ccc(Nc2ncc(Cc3c[nH]c4ncc(C)cc34)cn2)cn1 [Compound P-3027, (6-Ethoxy-pyridin-3-yl)-[5-(5-methyl-1H-pyrrolo[2,3-b]pyridin-3-ylmethyl)-pyrimidin-2-yl]-amine]",> 6.00
8,"Cc1cnc2[nH]cc(Cc3cnc(Nc4cc(C(C)(C)C)n[nH]4)nc3)c2c1 [Compound P-3029, (5-tert-Butyl-2H-pyrazol-3-yl)-[5-(5-methyl-1H-pyrrolo[2,3-b]pyridin-3-ylmethyl)-pyrimidin-2-yl]-amine]",> 6.00
9,"Cc1cnc2[nH]cc(Cc3cnc(Nc4cc(C5CC5)n[nH]4)nc3)c2c1 [Compound P-3032, (5-Cyclopropyl-2H-pyrazol-3-yl)-[5-(5-methyl-1H-pyrrolo[2,3-b]pyridin-3-ylmethyl)-pyrimidin-2-yl]-amine]",< 6.00
10,"Cc1cnc2[nH]cc(Cc3cnc(Nc4ccc(S(C)(=O)=O)cc4)nc3)c2c1 [Compound P-3034, (4-Methanesulfonyl-phenyl)-[5-(5-methyl-1H-pyrrolo[2,3-b]pyridin-3-ylmethyl)-pyrimidin-2-yl]-amine]",> 6.00
11,"CCn1ccc(Nc2ncc(Cc3c[nH]c4ncc(C)cc34)cn2)n1 [Compound P-3035, (1-Ethyl-1H-pyrazol-3-yl)-[5-(5-methyl-1H-pyrrolo[2,3-b]pyridin-3-ylmethyl)-pyrimidin-2-yl]-amine]",> 6.00
12,"CCn1cc(Nc2ncc(Cc3c[nH]c4ncc(C)cc34)cn2)cn1 [Compound P-3036, (1-Ethyl-1H-pyrazol-4-yl)-[5-(5-methyl-1H-pyrrolo[2,3-b]pyridin-3-ylmethyl)-pyrimidin-2-yl]-amine]",> 6.00
13,"Cc1cnc2[nH]cc(Cc3ccc(Nc4ccc(C)nc4)nc3F)c2c1 [Compound P-3041, [6-Fluoro-5-(5-methyl-1H-pyrrolo[2,3-b]pyridin-3-ylmethyl)-pyridin-2-yl]-(6-methyl-pyridin-3-yl)-amine]",> 6.00
14,"CCOc1ncnc2[nH]cc(Cc3ccc(Nc4cccnc4)nc3F)c12 [Compound P-4021, [5-(4-Ethoxy-7H-pyrrolo[2,3-d]pyrimidin-5-ylmethyl)-6-fluoro-pyridin-2-yl]-pyridin-3-yl-amine]",> 6.00
15,"CCOc1ccc(Nc2ccc(C(=O)c3c[nH]c4ncnc(C)c34)c(F)n2)cn1 [Compound P-4032, [6-(6-Ethoxy-pyridin-3-ylamino)-2-fluoro-pyridin-3-yl]-(4-methyl-7H-pyrrolo[2,3-d]pyrimidin-5-yl)-methanone]",> 7.00
16,"Cc1cncc(Nc2ccc(Cc3c[nH]c4ncnc(C5CC5)c34)c(F)n2)c1 [Compound P-4038, [5-(4-Cyclopropyl-7H-pyrrolo[2,3-d]pyrimidin-5-ylmethyl)-6-fluoro-pyridin-2-yl]-(5-methyl-pyridin-3-yl)-amine]",> 7.00
17,"Cc1cncc(Nc2ccc(C(=O)c3c[nH]c4ncnc(C5CC5)c34)c(F)n2)c1 [Compound P-4039, (4-Cyclopropyl-7H-pyrrolo[2,3-d]pyrimidin-5-yl)-[2-fluoro-6-(5-methyl-pyridin-3-ylamino)-pyridin-3-yl]-methanone]",> 7.00

# Continued, values first:
row,pIC50,SMILES
1,> 7.00,"COc1ccc(Nc2ccc(Cc3c[nH]c4ncc(C)cc34)c(F)n2)cn1 [Compound P-3019, [6-fluoro-5-(5-methyl-1H-pyrrolo[2,3-b]pyridin-3-ylmethyl)-pyridin-2-yl]-(6-methoxy-pyridin-3-yl)-amine]"
2,> 7.00,"COc1ccc(Nc2ncc(Cc3c[nH]c4ncc(C)cc34)cn2)cn1 [Compound P-3020, (6-Methoxy-pyridin-3-yl)-[5-(5-methyl-1H-pyrrolo[2,3-b]pyridin-3-ylmethyl)-pyrimidin-2-yl]-amine]"
3,> 7.00,"COc1ccc(Nc2ncc(Cc3c[nH]c4ncc(C)cc34)cn2)cc1 [Compound P-3021, (4-Methoxy-phenyl)-[5-(5-methyl-1H-pyrrolo[2,3-b]pyridin-3-ylmethyl)-pyrimidin-2-yl]-amine]"
4,> 7.00,"CCc1ccc(Nc2ncc(Cc3c[nH]c4ncc(C)cc34)cn2)cc1 [Compound P-3025, (4-Ethyl-phenyl)-[5-(5-methyl-1H-pyrrolo[2,3-b]pyridin-3-ylmethyl)-pyrimidin-2-yl]-amine]"
5,> 7.00,"Cc1cnc2[nH]cc(Cc3cnc(Nc4cc(-c5ccc(F)cc5)n[nH]4)nc3)c2c1 [Compound P-3028, [5-(4-Fluoro-phenyl)-2H-pyrazol-3-yl]-[5-(5-methyl-1H-pyrrolo[2,3-b]pyridin-3-ylmethyl)-pyrimidin-2-yl]-amine]"
6,> 8.00,"Cc1cnc2[nH]cc(Cc3cnc(Nc4ccc(C(C)(C)C)cc4)nc3)c2c1 [Compound P-3030, (4-tert-Butyl-phenyl)-[5-(5-methyl-1H-pyrrolo[2,3-b]pyridin-3-ylmethyl)-pyrimidin-2-yl]-amine amine]"
7,> 7.00,"Cc1cnc2[nH]cc(Cc3cnc(Nc4ccc(C(O)(C(F)(F)F)C(F)(F)F)cc4)nc3)c2c1 [Compound P-3031, 1,1,1,3,3,3-Hexafluoro-2-{4-[5-(5-methyl-1H-pyrrolo[2,3-b]pyridin-3-ylmethyl)-pyrimidin-2-ylamino]-phenyl}-propan-2-ol]"
8,> 8.00,"CSc1ccc(Nc2ncc(Cc3c[nH]c4ncc(C)cc34)cn2)cc1 [Compound P-3033, [5-(5-Methyl-1H-pyrrolo[2,3-b]pyridin-3-ylmethyl)-pyrimidin-2-yl]-(4-methylsulfanyl-phenyl)-amine]"
9,> 7.00,"CCOc1ccc(Nc2ccc(Cc3c[nH]c4ncc(C)cc34)c(F)n2)cn1 [Compound P-3039, (6-ethoxy-pyridin-3-yl)-[6-fluoro-5-(5-methyl-1H-pyrrolo[2,3-b]pyridin-3-ylmethyl)-pyridin-2-yl]-amine]"
10,> 8.00,"COc1ccc(Nc2ccc(C(=O)c3c[nH]c4ncc(C)cc34)c(F)n2)cn1 [Compound P-3040, [2-Fluoro-6-(6-methoxy-pyridin-3-ylamino)-pyridin-3-yl]-(5-methyl-1H-pyrrolo[2,3-b]pyridin-3-yl)-methanone]"
11,> 7.00,"Cc1ccc(Nc2ccc(Cc3c[nH]c4ncc(Cl)cc34)c(F)n2)cn1 [Compound P-3042, [5-(5-Chloro-1H-pyrrolo[2,3-b]pyridin-3-ylmethyl)-6-fluoro-pyridin-2-yl]-(6-methyl-pyridin-3-yl)-amine]"
12,> 8.00,"CCOc1ccc(Nc2ccc(C(=O)c3c[nH]c4ncc(C)cc34)c(F)n2)cn1 [Compound P-3045, [6-(6-ethoxy-pyridin-3-ylamino)-2-fluoro-pyridin-3-yl]-(5-methyl-1H-pyrrolo[2,3-b]pyridin-3-yl)-methanone]"
13,> 8.00,"CCOc1ncnc2[nH]cc(Cc3ccc(Nc4ccc(Br)nc4)nc3F)c12 [Compound P-4020, (6-Bromo-pyridin-3-yl)-[5-(4-ethoxy-7H-pyrrolo[2,3-d]pyrimidin-5-ylmethyl)-6-fluoro-pyridin-2-yl]-amine]"
14,> 8.00,"CCOc1ccc(Nc2ccc(Cc3c[nH]c4ncnc(C5CC5)c34)c(F)n2)cn1 [Compound P-4026, [5-(4-Cyclopropyl-7H-pyrrolo[2,3-d]pyrimidin-5-ylmethyl)-6-fluoro-pyridin-2-yl]-(6-ethoxy-pyridin-3-yl)-amine]"
15,> 8.00,"CCOc1ccc(Nc2ccc(C(=O)c3c[nH]c4ncnc(C5CC5)c34)c(F)n2)cn1 [Compound P-4027, (4-Cyclopropyl-7H-pyrrolo[2,3-d]pyrimidin-5-yl)-[6-(6-ethoxy-pyridin-3-ylamino)-2-fluoro-pyridin-3-yl]-methanone]"
